Reference: publication PMC12586598, “A novel long-acting C5a-blocking cyclic peptide prevents sepsis-induced organ dysfunction via effective blockade of the inflammatory cascade” (Signal Transduction and Targeted Therapy, 2025)
Where a SMILES comes first, the peptide text is derived from it.

Experiments:
Type in all cases: in vivo, mouse
CLP-induced septic mice [1] = experiment: Inflammatory factors and chemokines in plasma, Luminex, CLP mice
Procedure: (§1) Twenty-four hours later, whole blood and PLF were collected under anesthesia. The plasma and PLF supernatants were further isolated via centrifugation (3000 × g, 10 min, 4 °C) and subjected to inflammatory factor and chemokine profiling via the Luminex® multiplex […] Biotechnologies, Shanghai, China). The percent inhibition was calculated relative to that of the sham group (set as 0%).

CLP-induced septic mice [2] = experiment: Endothelial injury biomarkers and capillary leakage in CLP mice; details: 24 h post-CLP surgery
Procedure: To evaluate microvascular leakage in the murine abdominal cavity, the mice received 100 μg of Cp1 via intravenous administration one hour after CLP surgery. Subsequently, 200 μL of 0.25% (w/v) Evans blue dye was injected intravenously for permeability quantification. Twenty-four hours later, the plasma and peritoneal lavage fluid (PLF) of the mice were collected and subjected to spectrophotometric measurement at 620 nm. To exclude hemoglobin interference, the serum absorbance values were corrected via the following formula: corrected A620 = A620 − (A405 × 0.014).[40] Vascular permeability was quantified by the A620 ratio of PLF to serum. To assess capillary leakage in pulmonary tissues, human plasma albumin (HSA) (1 mg/75 μL) was injected intravenously after CLP surgery and Cp1 administration. Twenty-four hours later, the HSA in the bronchoalveolar lavage fluid (BALF) and plasma samples was quantified via a HAS ELISA Kit (Cusabio, Wuhan), and the lung permeability index was calculated as the ratio of the HAS in the BALF to that in the plasma.
The cecal ligation and puncture (CLP) model was established in male C57BL/6 mice (9-10 weeks old). Briefly, a midline laparotomy was performed to exteriorize the cecum under general anesthesia. The cecum was ligated at the distal three-quarters using sutures. Subsequently, a single through-and-through puncture was made in the ligated segment using a 22-gaμge needle, followed by small volume of fecal content was gentle extrusion. The cecum was then repositioned within abdominal cavity, and the laparotomy incision was closed in layers. All animals were administered 1 mL of sterile saline for postoperative fluid resuscitation. Sham-operated controls underwent identical surgical procedures without cecal ligation or puncture. In this work, mice received administration via intravenous injection 1 hour after CLP surgery. The animal mortality was determined by the presence of confirmed death. […] Blood samples were collected 24 hours after CLP-modeling for hematological analysis (Mindray BC-60R Vet) and biochemical analysis (Mindray BS-240 Vet, China), endothelial injury analysis (Njjcbio, Nanjing) and coagulation analysis (Legene, Beijing). Subsequently, mice were sacrificed to collect the main organs for morphological and pathological analysis.

CLP-induced septic mice [3] = experiment: Inflammatory factors and chemokines in PLF, Luminex, CLP mice
Procedure: as §1

CLP-treated mice = experiment: Response to secondary infection, short-term exposure: LPS stimulation of whole blood; details: blood taken 24 h post-CLP surgery, 1 μg LPS
Procedure: To evaluate the impact of short-term (24 h) drug exposure on the secondary infection response. Whole blood samples were collected from each group at 24 h post-CLP surgery and stimulated with 1 μg of LPS. The IL-6 levels at 0 h, 2 h, and 4 h poststimulation were quantified via an ELISA kit.

CLP-induced septic mice [4] = experiment: Bacterial burden in blood (CFU) of CLP mice
Procedure: Whole blood samples were aseptically dropped onto nutrient agar plates. Glass beads were added, and the samples were rocked horizontally to ensure the uniform distribution of blood samples. The inoculated plates were incubated at 37 °C for 24 h, after which colony-forming units (CFUs) were counted. The colonies on the culture plates were counted via ProtoCOL 3 HD (Synbiosis, UK).

[5] = 100 μg/20 g, 24 h after CLP surgery
[6] = 100 μg/20 g, 24 h after CLP, relative to Sham set as 0%

## CSCC[C@@H]1NC(=O)[C@@H]2CCCN2C(=O)[C@H](CCSC)NC(=O)[C@H](CO)NC(=O)[C@H](Cc2c[nH]cn2)NC(=O)CNC(=O)[C@H](CO)NC(=O)[C@H](Cc2ccccc2)NC(=O)[C@H](CCCNC(=N)N)NC(=O)[C@H](CCC(=O)O)NC(=O)[C@H](Cc2ccccc2)NC(=O)[C@H](C(C)C)NC1=O [Cp1] (cyclo(HSMPMVFERFSG))
CLP-induced septic mice [1]; [5]
  decrease in plasma CCL2 level: 21.7 fold
  decrease in plasma CCL3 level: 81.9 fold
  decrease in plasma CCL4 level: 24.8 fold
  decrease in plasma CCL5 level: 18.6 fold
  decrease in plasma CCL7 level: 102.3 fold
  decrease in plasma CXCL1 level: 61.7 fold
  decrease in plasma CXCL5 level: 4.3 fold
  decrease in plasma IL-1β level vs CLP group: 94%
  decrease in plasma IL-6 level vs CLP group: 99%
  decrease in plasma TNF-α level vs CLP group: 86%
CLP-induced septic mice [1]; 100 μg/20 g, Luminex (Fig. 4a)
  reduction in plasma IL-1β level: 18.6 fold
CLP-induced septic mice [1]; 300 μg of Cp1
  expression of inflammatory factors and chemokines in plasma, high dose: effectively suppressed
CLP-induced septic mice [1]; 24 h after CLP surgery
  plasma IL-17A, IFN-γ, GM-CSF, and CX3CL1 levels: significantly decreased
CLP-induced septic mice [1]; preliminary titrations
  lowest effective dose with significant pharmacological activity: 100 μg
CLP-induced septic mice [2]; 100 μg/20 g
  decrease of circulating E-selectin vs CLP group: 71%
  decrease of circulating PAI-1 vs CLP group: 93%
  decrease of circulating VCAM-1 vs CLP group: 100%
CLP-induced septic mice [2]; vs untreated CLP group
  decrease of Evans blue leakage (PLF/Serum): 54%
  decrease of HAS leakage (BALF/Serum): 83%
  reduction in lung wet-to-dry weight ratio (W/D ratio): 85%
CLP-induced septic mice [3]; [6]
  decrease of CCL2 in PLF: 96%
  decrease of CCL3 in PLF: 87%
  decrease of CCL5 in PLF: 89%
  decrease of CCL7 in PLF: 69%
  decrease of CCL12 in PLF: 90%
  decrease of CXCL1 in PLF: 75%
  decrease of CXCL5 in PLF: 94%
  decrease of IL-1β in PLF: 62%
  decrease of IL-6 in PLF: 73%
  decrease of TNF-α in PLF: 77%
CLP-induced septic mice [3]; 300 μg of Cp1
  expression of inflammatory factors and chemokines in PLF, high dose: effectively suppressed
CLP-induced septic mice [3]; CLP-induced septic mice, first of four 'corresponding' values
  attenuation of IL-6 in PLF: 3.7 fold
CLP-induced septic mice [3]; CLP-induced septic mice, fourth of four 'corresponding' values
  attenuation of CXCL1 in PLF: 4.3 fold
CLP-induced septic mice [3]; CLP-induced septic mice, third of four 'corresponding' values
  attenuation of CCL2 in PLF: 25 fold
CLP-treated mice
  IL-6 level at 2 h post-LPS stimulation vs CLP control group: obviously increased IL-6 levels
CLP-induced septic mice [4]; 100 μg Cp1, 24 h post-CLP
  reduction of bacterial burden (CFUs/mL in blood) vs CLP: 93%
CLP-induced septic mice [4]; 300 μg Cp1, 24 h post-CLP
  reduction of bacterial burden (CFUs/mL in blood) vs CLP: 86%
